Measured values published in PMC9143880, “Improving Antimicrobial Activity and Physico-Chemical Properties by Isosteric Replacement of 2-Aminothiazole with 2-Aminooxazole” (Pharmaceuticals, 2022).
Values after ≈ are worked out from the molar mass of the structure shown. Read-outs that look alike come from different tables or passages of the source.

What was measured:
[1] = system: Staphylococcus aureus subsp. aureus (MRSA) CCM 4750 (ATCC 43300); assay: Antibacterial microdilution broth (EUCAST); type: cell-based; settings: Staphylococcus aureus; 24h incubation; read-out: MIC MRSA
[2] = system: M. smegmatis DSM 43465 (ATCC 607); assay: Antimycobacterial MIC, microdilution broth / resazurin; type: cell-based; settings: Mycolicibacterium smegmatis; resazurin after 48 h; read-out: MIC M. smegmatis
[3] = system: Candida parapsilosis CCM 8260 (ATCC 22019); assay: Antifungal microdilution broth (EUCAST); settings: Lodderomyces parapsilosis, 24 h, read-out: MIC CP
[4] = system: Aspergillus fumigatus ATCC 204305; assay: Antifungal microdilution broth (EUCAST); settings: Aspergillus fumigatus, ATCC204305, 24 h, read-out: MIC AF
[5] = system: Enterococcus faecalis CCM 4224 (ATCC 29212); assay: Antibacterial microdilution broth (EUCAST); type: cell-based; settings: Enterococcus faecalis; 24h incubation; read-out: MIC EF
[6] = system: Trichophyton interdigitale CCM 8377 (ATCC 9533); assay: Antifungal microdilution broth (EUCAST); settings: Trichophyton interdigitale, 72 h, read-out: MIC TI
[7] = system: Candida tropicalis CCM 8264 (ATCC 750); assay: Antifungal microdilution broth (EUCAST); settings: Candida tropicalis, 24 h, read-out: MIC CT
[8] = system: HepG2 cells; assay: HepG2 cytotoxicity screening (CellTiter 96); type: cell-based, human; settings: for IC50: Homo sapiens, HepG2, 24 h, 24 h incubation, CellTiter 96, * above highest tested concentration, ** limited by insolubility in medium; for SI: SI = IC50 (µM) HepG2 / MICH37Ra (µM)
[9] = system: M. aurum DSM 43999 (ATCC 23366); assay: Antimycobacterial MIC, microdilution broth / resazurin; type: cell-based; settings: Mycolicibacterium aurum; resazurin after 72 h; read-out: MIC M. aurum
[10] = system: Lichtheimia corymbifera CCM 8077; assay: Antifungal microdilution broth (EUCAST); settings: Lichtheimia corymbifera, CCM8077, 24 h, read-out: MIC LC
[11] = system: Candida albicans CCM 8320 (ATCC 24433); assay: Antifungal microdilution broth (EUCAST); settings: Candida albicans, 24 h, read-out: MIC CA
[12] = system: Pseudomonas aeruginosa CCM 3955 (ATCC 27853); assay: Antibacterial microdilution broth (EUCAST); type: cell-based; settings: Pseudomonas aeruginosa; 72h incubation; read-out: MIC PA
[13] = system: M. avium DSM 44156 (ATCC 25291); assay: Antimycobacterial MIC, microdilution broth / resazurin; type: cell-based, Mycobacterium avium; settings: resazurin after 96 h; for MIC: Mycobacterium avium, read-out: MIC M. avium
[14] = system: Mycobacterium tuberculosis H37Ra ITM-M006710 (ATCC 9431); assay: Antimycobacterial MIC, microdilution broth / Alamar Blue (resazurin); type: cell-based; settings: Mycobacterium tuberculosis
[15] = system: Acinetobacter baumannii DSM 30007 (ATCC 19606); assay: Antibacterial microdilution broth (EUCAST); type: cell-based; settings: Acinetobacter baumannii; 24h incubation; read-out: MIC AB
[16] = system: M. kansasii DSM 44162 (ATCC 12478); assay: Antimycobacterial MIC, microdilution broth / resazurin; type: cell-based; settings: Mycobacterium kansasii, read-out: MIC M. kansasii
[17] = system: Aspergillus flavus CCM 8363; assay: Antifungal microdilution broth (EUCAST); settings: Aspergillus flavus, CCM8363, 24 h, read-out: MIC AFla
[18] = system: Candida krusei CCM 8271 (ATCC 6258); assay: Antifungal microdilution broth (EUCAST); settings: Pichia kudriavzevii, 24 h, read-out: MIC CK
[19] = system: Staphylococcus epidermidis CCM 4418 (ATCC 12228); assay: Antibacterial microdilution broth (EUCAST); type: cell-based; settings: Staphylococcus epidermidis; 24h incubation; read-out: MIC SE
[20] = system: Escherichia coli CCM 3954 (ATCC 25922); assay: Antibacterial microdilution broth (EUCAST); type: cell-based; settings: Escherichia coli; 24h incubation; read-out: MIC EC
[21] = RP-UHPLC lipophilicity parameter log k’w; type: physicochemical; settings: for log k’w: RP-UHPLC, acetonitrile/water, log k extrapolated to 0% acetonitrile; for logkw: experimental lipophilicity parameter
Description: Lipophilicity and water solubility of the drug candidates are important parameters as they are often directly related to their ADME properties in the organism. Lipophilicity is usually expressed as the logarithm of the partition coefficient in n-octanol/water (log P). Due to its laborious determination, especially in the HTS screening, other experimental methods such as RP-HPLC log k’w or purely computational approaches such as Clog P were proposed and have been established as reasonable estimators of true lipophilicity. To investigate the changes in lipophilicity upon introduction of oxazole in the title compounds, we determined the log k’w of all derivatives and compared respective values among the pairs.
The log k of the synthesized compounds was measured using the same instrument (single measurement per concentration), software, and column as was used in the purity evaluation. Working solutions were diluted as described above for purity determination. The log k parameter was calculated after the UHPLC measurements using isocratic mode with mobile phase acetonitrile (B)/water (A) in a set of concentrations of 40, 45, 50% and 20, 30, 40% B for subtype I and subtype II, respectively.

[22] = system: Staphylococcus aureus subsp. aureus CCM 4223 (ATCC 29213); assay: Antibacterial microdilution broth (EUCAST); type: cell-based; settings: Staphylococcus aureus; 24h incubation; read-out: MIC SA
[23] = 120 h, Middlebrook 7H9, resazurin after 120 h, read-out: Mtb H37Ra MIC
[24] = recalculated from µg/mL, read-out: MICH37Ra

O=C(Nc1nccs1)c1ccncc1 [Compound 3a]
MIC [1]: > 500 µM
MIC [2]: ≥ 500 µg/mL
MIC [3]: > 500 µM
MIC [4]: > 500 µM
MIC [5]: > 500 µM
MIC [6]: > 500 µM
MIC [7]: > 500 µM
IC50 [8]: > 1000 µM
MIC [9]: ≥ 500 µg/mL
MIC [10]: > 500 µM
MIC [11]: > 500 µM
MIC [12]: > 500 µM
MIC [13]: ≥ 500 µg/mL
MIC [14, 23]: 250 µg/mL
MIC [15]: > 500 µM
MIC ([16]; resazurin after 96 h): 250 µg/mL (≈ 1220 µM)
MIC [17]: > 500 µM
MIC [18]: > 500 µM
MIC [19]: > 500 µM
MIC [20]: > 500 µM
log k’w [21]: 1.306
logkw [21]: 1.306
MIC [22]: > 500 µM
melting point: 194 to 195 °C

Cc1cncc(C(=O)Nc2ncco2)c1 [Compound 4b]
MIC [1]: 500 µM (≈ 102 µg/mL)
MIC [2]: ≥ 500 µg/mL
MIC [3]: > 500 µM
MIC [4]: > 500 µM
MIC [5]: > 500 µM
MIC [6]: > 500 µM
MIC [7]: > 500 µM
IC50 [8]: > 1000 µM
SI [8]: >26.0
MIC [9]: 31.2 µg/mL (≈ 154 µM)
MIC [10]: > 500 µM
MIC [11]: > 500 µM
MIC [12]: > 500 µM
MIC [13]: 125 µg/mL (≈ 615 µM)
MIC [14, 23]: 7.81 µg/mL
MIC [14, 24]: 38.4 µM
MIC [15]: 500 µM (≈ 102 µg/mL)
MIC ([16]; resazurin after 96 h): 62.5 µg/mL (≈ 308 µM)
MIC [17]: > 500 µM
MIC [18]: > 500 µM
MIC [19]: 500 µM (≈ 102 µg/mL)
MIC [20]: > 500 µM
log k’w [21]: 0.888
logkw [21]: 0.8881
MIC [22]: 500 µM (≈ 102 µg/mL)
melting point: 171 to 175 °C

Cc1cc(C(=O)Nc2ncco2)ccn1 [Compound 5b]
MIC [1]: > 500 µM
MIC [2]: 250 µg/mL (≈ 1230 µM)
MIC [3]: > 125 µM
MIC [4]: > 125 µM
MIC [5]: > 500 µM
MIC [6]: > 125 µM
MIC [7]: > 125 µM
IC50 [8]: > 1000 µM
SI [8]: >52.0
MIC [9]: 15.6 µg/mL (≈ 76.9 µM)
MIC [10]: > 125 µM
MIC [11]: > 125 µM
MIC [12]: > 500 µM
MIC [13]: 62.5 µg/mL (≈ 308 µM)
MIC [14, 23]: 3.91 µg/mL
MIC [14, 24]: 19.2 µM
MIC [15]: > 500 µM
MIC ([16]; resazurin after 96 h): 31.2 µg/mL (≈ 154 µM)
MIC [17]: > 125 µM
MIC [18]: > 125 µM
MIC [19]: > 500 µM
MIC [20]: > 500 µM
log k’w [21]: 0.714
logkw [21]: 0.714
MIC [22]: > 500 µM
melting point: 149 to 152 °C

Cc1cc(C(=O)Nc2nc(-c3ccccc3)co2)cc(Cl)n1 [Compound 16b]
MIC [1]: 62.5 µM (≈ 19.6 µg/mL)
MIC [2]: 31.2 µg/mL (≈ 99.6 µM)
MIC [3]: > 125 µM
MIC [4]: > 125 µM
MIC [5]: > 125 µM
MIC [6]: 62.5 µM (≈ 19.6 µg/mL)
MIC [7]: > 125 µM
MIC [9]: 7.81 µg/mL (≈ 24.9 µM)
MIC [10]: > 125 µM
MIC [11]: > 125 µM
MIC [12]: > 125 µM
MIC [13]: 7.81 µg/mL (≈ 24.9 µM)
MIC [14, 23]: 15.6 µg/mL
MIC [15]: > 125 µM
MIC ([16]; 96 h): 15.6 µg/mL (≈ 49.8 µM)
MIC [17]: > 125 µM
MIC [18]: > 125 µM
MIC [19]: 125 µM (≈ 39.2 µg/mL)
MIC [20]: > 125 µM
log k’w [21]: 2.251
logkw [21]: 2.251
MIC [22]: 62.5 µM (≈ 19.6 µg/mL)
melting point: 83 to 86 °C

O=C(Nc1nc(-c2ccccc2)cs1)c1cnc2ccccc2n1 [Compound 19a]
MIC [1]: > 250 µM
MIC [2]: ≥ 500 µg/mL
MIC [3]: > 125 µM
MIC [4]: > 125 µM
MIC [5]: > 250 µM
MIC [6]: > 125 µM
MIC [7]: > 125 µM
MIC [9]: ≥ 500 µg/mL
MIC [10]: > 125 µM
MIC [11]: > 125 µM
MIC [12]: > 250 µM
MIC [13]: ≥ 500 µg/mL
MIC [14, 23]: ≥ 500 µg/mL
MIC [15]: > 250 µM
MIC ([16]; resazurin after 96 h): ≥ 500 µg/mL
MIC [17]: > 125 µM
MIC [18]: > 125 µM
MIC [19]: > 250 µM
MIC [20]: > 250 µM
log k’w [21]: 3.583
logkw [21]: 3.583
MIC [22]: > 250 µM
melting point: 217 to 219 °C

O=C(Nc1nc(-c2ccccc2)co1)c1cnc2ccccc2n1 [Compound 19b]
MIC [1]: > 500 µM
MIC [2]: ≥ 500 µg/mL
MIC [3]: > 125 µM
MIC [4]: > 125 µM
MIC [5]: > 500 µM
MIC [6]: > 125 µM
MIC [7]: > 125 µM
MIC [9]: ≥ 500 µg/mL
MIC [10]: > 125 µM
MIC [11]: > 125 µM
MIC [12]: > 500 µM
MIC [13]: 7.81 µg/mL (≈ 24.7 µM)
MIC M. avium [13]: strongly active
MIC [14, 23]: ≥ 500 µg/mL
MIC [15]: > 500 µM
MIC ([16]; resazurin after 96 h): 3.91 µg/mL (≈ 12.4 µM)
MIC [17]: > 125 µM
MIC [18]: > 125 µM
MIC [19]: > 500 µM
MIC [20]: > 500 µM
log k’w [21]: 2.465
logkw [21]: 2.465
MIC [22]: > 500 µM
melting point: 181 to 183 °C
